The record followed here is patent US7825139B2, “Compounds and methods for selective inhibition of dipeptidyl peptidase-IV” (Forest Laboratories Holdings Limited (BM), priority 2005, dated 2010).

Data set [1] deals with Zucker Obese Fatty rats. In words: Toxicity in rats, oral dosing. It counts as in vivo, rat. The following applies: 5-10 mg/kg, 4-24 hrs post-dose, all Zucker Obese Fatty rats tested. The source says:
Toxicity in Rats: The Zucker Diabetic Fatty (ZDF) rat model can be used to investigate the effects of the compounds of the invention on both the treatment and prevention of diabetes as rats of this sub-strain are initially pre-diabetic although they develop severe type 2 diabetes characterized by increased HbAl c levels over a period of 6 weeks. The same strain can be used to predict the clinical efficacy of other anti-diabetic drug types. For example, the model predicts the potency and limited clinical efficacy of thiazolidinedione insulin sensitizer compounds. The experimental protocol requires p.o. (oral gavage) administration of either vehicle or test article at indicated doses either QD or BID using a gastric feeding needle with a ball tip, without anesthesia, using hand restraint to adult rats which have been fasted overnight. Animals are monitored for clinical signs at 1, 2, 4 and 8 hour time intervals following the treatment regimen. Whole blood samples (to a maximum level of 10% of the total blood volume every 2 weeks) were collected from the animals from the retro-orbital sinus in accordance with the guidelines of the IACUC committee.
The expected therapeutic dose level could not be reached for the comparative compounds before acute toxicity was observed.

The target of data set [2] is T1, DPP-VIII (Homo sapiens, UniProt Q6V1X1).
T1 construct: The full length cDNAs for human DPP-VII, DPP-VIII, DPP-IX, and FAP were obtained from Open Biosystems; 6xHis (C); made in house
Nature of the data set: DPP-VIII IC50 assay (Ala-Pro AMC), selectivity versus DPP-IV. The class given is biochemical. The source says: The term “selectivity ratio” refers to the IC50 value generated in a biochemical assay measuring inhibition of DPP-IV compared to the IC50 value generated in a biochemical assay measuring inhibition of another DPP family member (e.g. DPP-VII, DPP-VIII, DPP-IX or FAP) whereby the ratio is obtained by dividing the IC50 value of DPP-VII, DPP-VIII, DPP-IX or FAP by the IC50 value for DPP-IV.
Materials. S9 insect cells and Sf-900 II SFM media were from Invitrogen. Anti-FLAG M2 immunoaffinity gel was from Sigma. Gly-Pro-AMC, Lys-Pro AMC, and Ala-Pro AMC were from Enzyme Systems. IC50 calculations were performed by non-linear regression analysis using Prism software (GraphPad). Preparation of DPP-VII, DPP-VIII, DPP-IX, and FAP baculovirus constructs. The full length cDNAs for human DPP-VII, DPP-VIII, DPP-IX, and FAP were obtained from Open Biosystems. […] Baculovirus was prepared using the Bac-to-Bac Baculovirus Expression System (Invitrogen). The cDNAs in the final baculovirus constructs were sequence verified. Baculovirus expression. […] Infection with DPP-VII, DPP-VIII, DPP-IX, and FAP baculoviral constructs were all performed at an MOI of 4. The infected cells were grown for 48 hours and the cell pellets harvested and frozen until purification. DPP-VII was purified using anti-FLAG immunoaffinity gel according to the manufacturer's instructions. DPP-VIII, DPP-IX, and FAP were purified using a B-PER 6xHis Fusion Protein Column Purification Kit from Pierce. IC50 assay. Recombinant DPPs were diluted in reaction buffer to give fluorescence values of 5000-20000 counts in the “enzyme only wells” 20 min after addition of substrate at 27° C. Reaction buffers were 25 mM (2-(4-Morpholino)-Ethane Sulfonic Acid), pH 5.5 for DPP-VII, 25 mM Tris, pH 8, 1% Triton X-100, 100 mM NaCl for DPP-VIII, and 25 mM Tris pH 8 for DPP-1× and FAP. Test wells in a 96-well microtiter plate contained 88 μL of diluted DPP and 2.5 ul of titrated compound in 50 mM glycine, pH 2.6. “Enzyme only” wells contained 88 uL of diluted DPP and 2.5 ul of glycine buffer. “No enzyme” wells contained 88 uL of reaction buffer without DPP and 2.5 ul of glycine buffer. All assays were done in triplicate. The plate was incubated at 27° C. for 10 min and then cooled on ice for 10 min. Ten microliters of substrate diluted in reaction buffer (40 uM final concentration) without Triton or NaCl were then added to all wells followed by incubation at 27C for 20 min. Substrates were Lys-Pro AMC for DPP-VII, and Ala-Pro AMC for DPP-VIII, DPP-IX, and FAP. Fluorescence in each well was measured at settings of 380/460 nm.

Data set [3] addresses T2, DPP-IV (Sus scrofa, UniProt P22411).
T2 construct: from tissue; host or cells: porcine
In words: DPP-IV fluorometric enzyme inhibition assay (Gly-Pro-AMC). It counts as biochemical, porcine. Here is the method: The following methods were used to measure the activities of the compounds of the invention which inhibit the enzymatic activity of DPP-IV. The compounds of the invention are tested for their ability to inhibit the enzyme activity of purified DPP-IV. Briefly, the activity of DPP-IV is measured in vitro by its ability to cleave the synthetic substrate Gly-Pro-AMC. Cleavage of Gly-Pro-AMC by DPP-IV liberates the product AMC (7-amino-4-methyl coumarin), whose rate of appearance is directly proportional to the enzyme activity. Inhibition of the enzyme activity by specific enzyme inhibitors slows down the generation of AMC. […] The accumulation of AMC is measured fluorometrically. […]
Thus, DPP-IV enzyme activity was determined by a fluorometric assay with the substrate Gly-Pro-AMC which is cleaved by DPP-IV to release the fluorescent AMC leaving group. Free AMC (7-amino-4-methyl coumarin) was measured using an excitation wavelength of 380 nm and an emission wavelength of 460 nm with a Victor-II fluorescent reader. […] After 10-minutes substrate was added (10 μl) and allowed to react for 20-minutes at 26° C. before free AMC was measured. IC50 values were determined in triplicate, using a minimum of six different inhibitor concentrations. IC50 values were calculated using Nonlinear Regression Analysis (GraphPad, Prism, San Diego, Calif.). […]

T1 sequence (Q6V1X1 whole entry): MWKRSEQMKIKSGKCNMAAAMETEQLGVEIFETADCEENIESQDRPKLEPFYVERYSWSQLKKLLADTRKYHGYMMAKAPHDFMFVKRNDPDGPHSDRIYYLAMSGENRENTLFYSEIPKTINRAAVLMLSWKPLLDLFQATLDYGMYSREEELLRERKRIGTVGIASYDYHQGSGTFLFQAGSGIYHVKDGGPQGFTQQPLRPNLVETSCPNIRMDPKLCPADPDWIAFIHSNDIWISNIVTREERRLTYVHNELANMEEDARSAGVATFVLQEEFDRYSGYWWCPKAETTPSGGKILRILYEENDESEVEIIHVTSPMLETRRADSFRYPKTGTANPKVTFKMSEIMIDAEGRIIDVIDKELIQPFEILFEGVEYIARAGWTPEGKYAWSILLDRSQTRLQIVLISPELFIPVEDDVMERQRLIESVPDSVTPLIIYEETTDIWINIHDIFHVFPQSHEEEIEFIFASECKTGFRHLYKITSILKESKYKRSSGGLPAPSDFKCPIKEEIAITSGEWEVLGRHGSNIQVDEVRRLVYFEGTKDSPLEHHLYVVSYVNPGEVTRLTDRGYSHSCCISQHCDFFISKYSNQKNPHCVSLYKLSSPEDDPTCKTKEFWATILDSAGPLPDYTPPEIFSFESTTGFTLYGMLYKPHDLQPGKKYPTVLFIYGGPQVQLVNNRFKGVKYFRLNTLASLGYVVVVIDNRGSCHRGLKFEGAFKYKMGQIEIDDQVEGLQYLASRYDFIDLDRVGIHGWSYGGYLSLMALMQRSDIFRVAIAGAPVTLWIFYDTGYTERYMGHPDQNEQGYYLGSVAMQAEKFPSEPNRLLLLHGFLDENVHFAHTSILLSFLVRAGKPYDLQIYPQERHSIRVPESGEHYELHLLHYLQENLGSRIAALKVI
T2 sequence (P22411 whole entry): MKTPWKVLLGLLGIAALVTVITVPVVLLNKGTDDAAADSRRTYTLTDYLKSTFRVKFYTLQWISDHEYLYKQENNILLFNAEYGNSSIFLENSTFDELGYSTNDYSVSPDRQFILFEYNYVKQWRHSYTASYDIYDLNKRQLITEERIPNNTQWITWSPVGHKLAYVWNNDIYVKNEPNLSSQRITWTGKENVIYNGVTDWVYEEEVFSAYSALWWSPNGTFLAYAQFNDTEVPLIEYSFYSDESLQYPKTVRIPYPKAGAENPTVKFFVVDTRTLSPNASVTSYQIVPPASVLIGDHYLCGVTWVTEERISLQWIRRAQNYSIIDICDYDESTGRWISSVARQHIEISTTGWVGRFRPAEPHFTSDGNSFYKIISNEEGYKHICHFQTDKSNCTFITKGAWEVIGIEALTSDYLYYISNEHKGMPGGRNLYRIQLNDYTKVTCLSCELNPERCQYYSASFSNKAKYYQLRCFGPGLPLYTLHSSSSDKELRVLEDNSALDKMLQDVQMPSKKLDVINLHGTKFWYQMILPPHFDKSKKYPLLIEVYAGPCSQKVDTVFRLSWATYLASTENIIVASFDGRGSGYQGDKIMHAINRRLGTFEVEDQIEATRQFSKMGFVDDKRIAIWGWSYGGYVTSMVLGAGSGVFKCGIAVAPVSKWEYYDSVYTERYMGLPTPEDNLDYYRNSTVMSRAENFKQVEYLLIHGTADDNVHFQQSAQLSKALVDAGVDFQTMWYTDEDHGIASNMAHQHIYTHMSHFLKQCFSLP

For the compound `O=C(CNC1CCCC1)N1CCC[C@H]1B(O)O` [Compound 19], the “acute toxicity in rats” value in data set [1] is “acute toxicity (death)”. Moreover, in data set [2], the “inhibition of DPP-VIII (in words)” value is “potent inhibitor”. For the same compound, in data set [3], the “inhibition of DPP-IV (in words)” value is recorded as “potent inhibitor”.
